# Source: ChEMBL document CHEMBL4622870, “Design, synthesis and evaluation of hydrazine and acyl hydrazone derivatives of 5-pyrrolidin-2-one as antifungal agents” (Bioorg Med Chem Lett, 2020)
# Assays:
# Candida tropicalis [1] = assay: Antifungal activity against Candida tropicalis assessed as fungal growth inhibition by micro-dilution method; assay type: functional
# [2] = test system: Cladosporium cladosporioides; assay: Antifungal activity against Cladosporium cladosporioides assessed as fungal growth inhibition by micro-dilution method; assay type: functional
# Candida tropicalis [3] = assay: Antifungal activity against Candida tropicalis assessed as fungal growth inhibition at 100 ug/ml by micro-dilution method relative to control; assay type: functional; conditions: read-out: GI
# [4] = test system: Cladosporium cladosporioides; assay: Antifungal activity against Cladosporium cladosporioides assessed as fungal growth inhibition at 100 ug/ml by micro-dilution method relative to control; assay type: functional; conditions: read-out: GI
# Fusarium solani [5] = assay: Antifungal activity against Fusarium solani assessed as fungal growth inhibition at 100 ug/ml by micro-dilution method relative to control; assay type: functional; conditions: read-out: GI
# Sclerotinia sclerotiorum [6] = assay: Antifungal activity against Sclerotinia sclerotiorum assessed as fungal growth inhibition at 100 ug/ml by micro-dilution method relative to control; assay type: functional; conditions: read-out: GI
# HEK293 = assay: Cytotoxicity against human HEK293 cells assessed as effect on cell viability measured after 72 hrs by MTS assay; assay type: cell-based; conditions: hek293, 72 h
# Pichia kudriavzevii = assay: Antifungal activity against Candida krusei assessed as fungal growth inhibition at 100 ug/ml by micro-dilution method relative to control; assay type: functional; conditions: read-out: GI
# Penicillium ochrochloron [7] = assay: Antifungal activity against Penicillium ochrochloron assessed as fungal growth inhibition at 100 ug/ml by micro-dilution method relative to control; assay type: functional; conditions: read-out: GI
# Geotrichum candidum [8] = assay: Antifungal activity against Geotrichum candidum assessed as fungal growth inhibition by micro-dilution method; assay type: functional
# Geotrichum candidum [9] = assay: Antifungal activity against Geotrichum candidum assessed as fungal growth inhibition at 100 ug/ml by micro-dilution method relative to control; assay type: functional; conditions: read-out: GI
# Paecilomyces variotii [10] = assay: Antifungal activity against Paecilomyces variotii assessed as fungal growth inhibition at 100 ug/ml by micro-dilution method relative to control; assay type: functional; conditions: read-out: GI
# Alternaria alternata [11] = assay: Antifungal activity against Alternaria alternata assessed as fungal growth inhibition at 100 ug/ml by micro-dilution method relative to control; assay type: functional; conditions: read-out: GI
# Penicillium ochrochloron [12] = assay: Antifungal activity against Penicillium ochrochloron assessed as fungal growth inhibition by micro-dilution method; assay type: functional
# Botrytis cinerea = assay: Antifungal activity against Botrytis cinerea assessed as fungal growth inhibition at 100 ug/ml by micro-dilution method relative to control; assay type: functional; conditions: read-out: GI
# Aspergillus oryzae [13] = assay: Antifungal activity against Aspergillus oryzae assessed as fungal growth inhibition at 100 ug/ml by micro-dilution method relative to control; assay type: functional; conditions: read-out: GI
# Fusarium solani [14] = assay: Antifungal activity against Fusarium solani assessed as fungal growth inhibition by micro-dilution method; assay type: functional
# Kluyveromyces marxianus [15] = assay: Antifungal activity against Candida pseudotropicalis assessed as fungal growth inhibition at 100 ug/ml by micro-dilution method relative to control; assay type: functional; conditions: read-out: GI
# Kluyveromyces marxianus [16] = assay: Antifungal activity against Candida pseudotropicalis assessed as fungal growth inhibition by micro-dilution method; assay type: functional
# Paecilomyces variotii [17] = assay: Antifungal activity against Paecilomyces variotii assessed as fungal growth inhibition by micro-dilution method; assay type: functional
# Alternaria alternata [18] = assay: Antifungal activity against Alternaria alternata assessed as fungal growth inhibition by micro-dilution method; assay type: functional
# Aspergillus oryzae [19] = assay: Antifungal activity against Aspergillus oryzae assessed as fungal growth inhibition by micro-dilution method; assay type: functional
# Sclerotinia sclerotiorum [20] = assay: Antifungal activity against Sclerotinia sclerotiorum assessed as fungal growth inhibition by micro-dilution method; assay type: functional
Structure (SMILES),MIC50 (Geotrichum candidum [8]) [µg/mL],MIC50 (Penicillium ochrochloron [12]) [µg/mL],MIC50 (Fusarium solani [14]) [µg/mL],inhibition of growth at 100 µg/mL (Candida tropicalis [3]) [%],inhibition of growth at 100 µg/mL [4] [%],inhibition of growth at 100 µg/mL (Fusarium solani [5]) [%],inhibition of growth at 100 µg/mL (Sclerotinia sclerotiorum [6]) [%],Activity (HEK293),inhibition of growth at 100 µg/mL (Pichia kudriavzevii) [%],inhibition of growth at 100 µg/mL (Penicillium ochrochloron [7]) [%],inhibition of growth at 100 µg/mL (Geotrichum candidum [9]) [%],inhibition of growth at 100 µg/mL (Paecilomyces variotii [10]) [%],inhibition of growth at 100 µg/mL (Alternaria alternata [11]) [%],inhibition of growth at 100 µg/mL (Botrytis cinerea) [%],inhibition of growth at 100 µg/mL (Aspergillus oryzae [13]) [%],inhibition of growth at 100 µg/mL (Kluyveromyces marxianus [15]) [%],also measured
CC(=O)N1CCN(c2ccc(OCC3COC(Cn4ccnc4)(c4ccc(Cl)cc4Cl)O3)cc2)CC1 (stereo unspecified) [KETOCONAZOLE],1.5,–,–,–,–,–,–,–,–,–,–,–,–,–,–,–,MIC50 (Candida tropicalis [1]): 15.9 µg/mL; MIC50 (Kluyveromyces marxianus [16]): 9.6 µg/mL
O=C1CC[C@@H](C(=O)N/N=C/c2ccccc2[N+](=O)[O-])N1,–,–,51.6,19,0,100,21,Non-Toxic,0,13,50,3,0,27,32,35,–
O=C1CC[C@@H](C(=O)N/N=C/c2ccc([N+](=O)[O-])cc2)N1,–,–,59.1,42,40,100,9,Non-Toxic,22,14,30,20,30,0,0,38,–
Cc1ccc(/C=N/NC(=O)[C@@H]2CCC(=O)N2)cc1,–,–,102,33,5,94,0,Non-Toxic,28,0,28,35,0,0,11,32,–
O=C1CC[C@@H](C(=O)N/N=C/c2ccccc2O)N1,62,–,–,7,0,40,21,Non-Toxic,38,30,70,14,38,0,7,18,–
O=C1CC[C@@H](C(=O)N/N=C/c2ccc(Cl)nc2)N1,38.4,–,–,0,33,23,0,Non-Toxic,2,62,72,42,0,0,0,10,–
Cc1cc(O)no1 [HYMEXAZOL],> 50,62.2,15.6,–,–,–,–,–,–,–,–,–,–,–,–,–,MIC50 [2]: 28.9 µg/mL; MIC50 (Alternaria alternata [18]): 38.3 µg/mL; MIC50 (Paecilomyces variotii [17]): 57.2 µg/mL; MIC50 (Aspergillus oryzae [19]): 45.7 µg/mL; MIC50 (Sclerotinia sclerotiorum [20]): 26.5 µg/mL

# More lines, main results first:
MIC50 (Geotrichum candidum [8]) [µg/mL],MIC50 (Penicillium ochrochloron [12]) [µg/mL],MIC50 (Fusarium solani [14]) [µg/mL],Structure (SMILES),inhibition of growth at 100 µg/mL (Candida tropicalis [3]) [%],inhibition of growth at 100 µg/mL [4] [%],inhibition of growth at 100 µg/mL (Fusarium solani [5]) [%],inhibition of growth at 100 µg/mL (Sclerotinia sclerotiorum [6]) [%],Activity (HEK293),inhibition of growth at 100 µg/mL (Pichia kudriavzevii) [%],inhibition of growth at 100 µg/mL (Penicillium ochrochloron [7]) [%],inhibition of growth at 100 µg/mL (Geotrichum candidum [9]) [%],inhibition of growth at 100 µg/mL (Paecilomyces variotii [10]) [%],inhibition of growth at 100 µg/mL (Alternaria alternata [11]) [%],inhibition of growth at 100 µg/mL (Botrytis cinerea) [%],inhibition of growth at 100 µg/mL (Aspergillus oryzae [13]) [%],inhibition of growth at 100 µg/mL (Kluyveromyces marxianus [15]) [%],also measured
5.9,5.3,6.5,O=C1CC[C@@H](C(=O)N/N=C/c2ccc(Br)cc2)N1,92,72,100,37,Non-Toxic,0,77,100,0,0,40,43,2,MIC50 (Candida tropicalis [1]): > 75 µg/mL; MIC50 [2]: 53 µg/mL
63.7,–,–,O=C1CC[C@@H](C(=O)N/N=C/c2ccc(C(F)(F)F)cc2)N1,17,11,55,0,Non-Toxic,21,44,85,44,21,0,0,21,–
1.8,15.4,–,O=C1CC[C@@H](C(=O)N/N=C/c2ccc(Cl)cc2)N1,47,98,61,58,Non-Toxic,26,92,92,27,20,34,0,50,MIC50 [2]: 23.9 µg/mL
–,–,11.7,O=C1CCC(NNc2ccc(C(F)(F)F)cc2)N1 (racemic),51,81,100,40,Non-Toxic,51,35,22,82,2,39,37,38,MIC50 [2]: 3.4 µg/mL; MIC50 (Paecilomyces variotii [17]): 2 µg/mL
1.8,–,–,O=C1CC[C@@H](C(=O)N/N=C/c2c(Cl)cccc2Cl)N1,16,12,60,58,Non-Toxic,0,22,73,13,0,0,12,32,–
–,21.1,24.5,O=C1CCC(NNc2cc(F)ccc2F)N1 (racemic),62,29,95,28,Non-Toxic,20,73,25,17,72,0,0,65,MIC50 (Alternaria alternata [18]): 18.6 µg/mL
–,–,31,CN(NC1CCC(=O)N1)c1ccccc1 (racemic),20,42,100,46,Non-Toxic,20,56,18,70,0,20,45,61,MIC50 (Paecilomyces variotii [17]): 14.8 µg/mL
–,4.4,18.5,O=C1CCC(NNc2ccccc2)N1 (racemic),89,44,100,76,Non-Toxic,35,90,0,78,82,62,71,96,MIC50 (Candida tropicalis [1]): 58.5 µg/mL; MIC50 (Alternaria alternata [18]): 3.6 µg/mL; MIC50 (Paecilomyces variotii [17]): 7.8 µg/mL; MIC50 (Aspergillus oryzae [19]): 43.4 µg/mL; MIC50 (Kluyveromyces marxianus [16]): 0.6 µg/mL; MIC50 (Sclerotinia sclerotiorum [20]): 23 µg/mL
